22 compounds from ChEMBL document CHEMBL1144680, “Structure-guided design of aminopyrimidine amides as potent, selective inhibitors of lymphocyte specific kinase: synthesis, structure-activity relationships, and inhibition of in vivo T cell activation” (J Med Chem, 2008) can be followed below.

The target of series [1] is Vascular endothelial growth factor receptor 2 (Homo sapiens, UniProt P35968). As to the kind of experiment: Inhibition of KDR by HTRF assay. (In TR-FRET formats the signal depends on donor and acceptor labels being close together.)
Series [2] deals with Mitogen-activated protein kinase 14 (Homo sapiens, UniProt Q16539). The series can be described thus: Inhibition of p38alpha by HTRF assay.
Series [3] has as its target T1, Tyrosine-protein kinase JAK3 (Homo sapiens, UniProt P52333).
T1 sequence (P52333 whole entry): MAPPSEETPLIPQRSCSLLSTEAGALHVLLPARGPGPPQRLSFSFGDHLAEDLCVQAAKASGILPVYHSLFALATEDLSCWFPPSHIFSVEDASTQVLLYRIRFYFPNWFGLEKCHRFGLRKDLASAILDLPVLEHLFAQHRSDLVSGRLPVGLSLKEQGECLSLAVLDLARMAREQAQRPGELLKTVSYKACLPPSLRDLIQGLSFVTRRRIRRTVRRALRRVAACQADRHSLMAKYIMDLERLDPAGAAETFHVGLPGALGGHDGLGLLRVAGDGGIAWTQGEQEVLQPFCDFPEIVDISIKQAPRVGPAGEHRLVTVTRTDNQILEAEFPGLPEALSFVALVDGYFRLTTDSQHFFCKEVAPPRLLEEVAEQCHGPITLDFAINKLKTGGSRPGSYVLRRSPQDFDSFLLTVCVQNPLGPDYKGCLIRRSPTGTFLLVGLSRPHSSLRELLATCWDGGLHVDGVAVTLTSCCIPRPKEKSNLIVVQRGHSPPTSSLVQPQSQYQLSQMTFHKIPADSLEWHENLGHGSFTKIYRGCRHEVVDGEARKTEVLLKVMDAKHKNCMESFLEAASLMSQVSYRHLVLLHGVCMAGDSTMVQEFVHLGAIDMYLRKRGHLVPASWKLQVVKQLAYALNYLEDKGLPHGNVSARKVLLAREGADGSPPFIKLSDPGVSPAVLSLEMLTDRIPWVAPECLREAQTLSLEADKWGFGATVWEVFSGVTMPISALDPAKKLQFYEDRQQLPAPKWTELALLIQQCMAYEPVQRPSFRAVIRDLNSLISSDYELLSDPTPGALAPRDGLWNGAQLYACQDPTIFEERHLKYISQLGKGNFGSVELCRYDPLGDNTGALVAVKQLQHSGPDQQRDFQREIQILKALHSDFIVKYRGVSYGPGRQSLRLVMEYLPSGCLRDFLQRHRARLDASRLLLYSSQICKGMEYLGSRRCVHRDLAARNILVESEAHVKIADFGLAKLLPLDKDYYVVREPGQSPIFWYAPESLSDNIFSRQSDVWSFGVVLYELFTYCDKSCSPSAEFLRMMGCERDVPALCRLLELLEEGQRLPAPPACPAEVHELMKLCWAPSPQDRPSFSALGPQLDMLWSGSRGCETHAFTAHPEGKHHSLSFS
As to the kind of experiment: Inhibition of Jak3 by HTRF assay.

For series [4], the target named is Angiopoietin-1 receptor (Homo sapiens, UniProt Q02763). The series can be described thus: Inhibition of Tie2 by HTRF assay.
Series [5] concerns the target Tyrosine-protein kinase Lck (Homo sapiens, UniProt P06239).
Description: Inhibition of Lck by HTRF assay
Series [6] concerns Lymphocyte. The series can be described thus: Inhibition of T cell activation in human peripheral blood lymphocytes by mixed lymphocyte reaction. The format is functional, cell-based.
Series [7] in a line: Cmax in Sprague-Dawley rat at 2 mg/kg, po. The format is ADME, organism-based. Also noted: dose 2 mg/kg, route oral. Conditions: in vivo.
The nature of series [8]: Tmax in Sprague-Dawley rat at 2 mg/kg. It counts as ADME, organism-based. Also noted: dose 2 mg/kg. As to conditions: in vivo.
A short description of series [9]: Clearance in Sprague-Dawley rat at 0.5 mg/kg, iv. It counts as ADME, organism-based. Also on record: dose 0.5 mg/kg, route intravenous. Conditions: in vivo.
The nature of series [10]: AUC (0 to infinity) in Sprague-Dawley rat at 2 mg/kg, po. The format is ADME, organism-based. Also on record: time infinity, dose 2 mg/kg, route oral. As to conditions: plasma.
The nature of series [11]: Half life in Sprague-Dawley rat at 0.5 mg/kg, iv. It counts as ADME, organism-based. Also on record: dose 0.5 mg/kg, route intravenous. Conditions: in vivo.
The nature of series [12]: Volume of distribution at steady state in Sprague-Dawley rat at 0.5 mg/kg, iv. It counts as ADME, organism-based. Also noted: dose 0.5 mg/kg, route intravenous. Conditions: in vivo, read-out: Vdss.
Series [13] is described as follows: Oral bioavailability in Sprague-Dawley rat at 2 mg/kg. It counts as ADME, organism-based. Conditions: in vivo.
Series [14] concerns Blood. As to the kind of experiment: Inhibition of anti-CD3-induced IL2 production in human whole blood by ELISA. The format is functional, tissue-based. In general terms: An ELISA detects its analyte on a solid surface through an enzyme-linked reagent.
Series [15] is described as follows: Protein binding in mouse plasma. As to conditions: read-out: PB (converted). The format is ADME, cell-free.
Series [16] can be described thus: Protein binding in rat plasma. It counts as ADME, cell-free. Conditions: read-out: PB (converted).

Structures are written as SMILES. pIC50: −log10 of the molar value. Where only a bound is given, the exact number is not on record here.

Sequence of Vascular endothelial growth factor receptor 2 (P35968 whole entry): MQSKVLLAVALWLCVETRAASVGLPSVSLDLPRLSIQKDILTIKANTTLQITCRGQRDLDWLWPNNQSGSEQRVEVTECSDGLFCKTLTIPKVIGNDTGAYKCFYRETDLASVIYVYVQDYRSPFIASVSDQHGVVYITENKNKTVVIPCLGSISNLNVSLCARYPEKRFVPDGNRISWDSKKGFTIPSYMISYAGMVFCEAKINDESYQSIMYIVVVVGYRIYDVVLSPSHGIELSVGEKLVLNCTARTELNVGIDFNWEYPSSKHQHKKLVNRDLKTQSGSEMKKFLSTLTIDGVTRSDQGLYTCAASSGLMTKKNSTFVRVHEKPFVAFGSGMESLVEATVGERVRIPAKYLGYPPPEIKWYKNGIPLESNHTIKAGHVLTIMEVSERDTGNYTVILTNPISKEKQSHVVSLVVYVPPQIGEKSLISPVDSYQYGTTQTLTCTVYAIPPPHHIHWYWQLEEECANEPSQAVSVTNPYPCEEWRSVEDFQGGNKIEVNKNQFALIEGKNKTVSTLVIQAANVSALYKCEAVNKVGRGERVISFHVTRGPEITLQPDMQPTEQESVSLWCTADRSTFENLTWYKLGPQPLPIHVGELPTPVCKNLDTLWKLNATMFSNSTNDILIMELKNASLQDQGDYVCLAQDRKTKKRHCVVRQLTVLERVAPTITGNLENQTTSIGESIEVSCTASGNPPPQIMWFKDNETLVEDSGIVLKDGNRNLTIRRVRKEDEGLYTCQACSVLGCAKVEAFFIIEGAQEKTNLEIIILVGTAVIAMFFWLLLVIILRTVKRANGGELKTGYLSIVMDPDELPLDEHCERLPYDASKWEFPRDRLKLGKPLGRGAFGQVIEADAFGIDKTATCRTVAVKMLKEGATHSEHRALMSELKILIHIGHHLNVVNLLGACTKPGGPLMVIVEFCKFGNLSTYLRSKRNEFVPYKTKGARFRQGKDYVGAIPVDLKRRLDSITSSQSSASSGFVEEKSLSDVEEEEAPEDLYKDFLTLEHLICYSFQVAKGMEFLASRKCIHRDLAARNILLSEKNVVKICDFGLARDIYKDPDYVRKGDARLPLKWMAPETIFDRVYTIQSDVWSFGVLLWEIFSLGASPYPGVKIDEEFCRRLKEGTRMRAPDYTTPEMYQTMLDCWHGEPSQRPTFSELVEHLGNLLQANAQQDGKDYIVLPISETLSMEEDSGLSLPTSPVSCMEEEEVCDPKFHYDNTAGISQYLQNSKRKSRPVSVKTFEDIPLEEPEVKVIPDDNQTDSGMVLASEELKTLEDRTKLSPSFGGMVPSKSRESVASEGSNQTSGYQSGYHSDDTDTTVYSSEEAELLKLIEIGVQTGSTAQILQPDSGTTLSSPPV
Sequence of Mitogen-activated protein kinase 14 (Q16539 whole entry): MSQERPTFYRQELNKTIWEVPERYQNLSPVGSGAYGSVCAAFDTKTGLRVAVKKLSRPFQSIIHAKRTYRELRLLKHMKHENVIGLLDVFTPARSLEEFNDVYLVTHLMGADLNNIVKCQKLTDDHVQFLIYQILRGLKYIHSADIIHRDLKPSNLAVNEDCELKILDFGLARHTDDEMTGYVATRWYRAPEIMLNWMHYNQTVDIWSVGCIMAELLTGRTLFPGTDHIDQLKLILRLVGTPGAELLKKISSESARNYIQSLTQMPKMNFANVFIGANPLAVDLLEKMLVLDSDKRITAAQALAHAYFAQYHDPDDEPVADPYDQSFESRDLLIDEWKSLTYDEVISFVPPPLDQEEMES
Sequence of Angiopoietin-1 receptor (Q02763 whole entry): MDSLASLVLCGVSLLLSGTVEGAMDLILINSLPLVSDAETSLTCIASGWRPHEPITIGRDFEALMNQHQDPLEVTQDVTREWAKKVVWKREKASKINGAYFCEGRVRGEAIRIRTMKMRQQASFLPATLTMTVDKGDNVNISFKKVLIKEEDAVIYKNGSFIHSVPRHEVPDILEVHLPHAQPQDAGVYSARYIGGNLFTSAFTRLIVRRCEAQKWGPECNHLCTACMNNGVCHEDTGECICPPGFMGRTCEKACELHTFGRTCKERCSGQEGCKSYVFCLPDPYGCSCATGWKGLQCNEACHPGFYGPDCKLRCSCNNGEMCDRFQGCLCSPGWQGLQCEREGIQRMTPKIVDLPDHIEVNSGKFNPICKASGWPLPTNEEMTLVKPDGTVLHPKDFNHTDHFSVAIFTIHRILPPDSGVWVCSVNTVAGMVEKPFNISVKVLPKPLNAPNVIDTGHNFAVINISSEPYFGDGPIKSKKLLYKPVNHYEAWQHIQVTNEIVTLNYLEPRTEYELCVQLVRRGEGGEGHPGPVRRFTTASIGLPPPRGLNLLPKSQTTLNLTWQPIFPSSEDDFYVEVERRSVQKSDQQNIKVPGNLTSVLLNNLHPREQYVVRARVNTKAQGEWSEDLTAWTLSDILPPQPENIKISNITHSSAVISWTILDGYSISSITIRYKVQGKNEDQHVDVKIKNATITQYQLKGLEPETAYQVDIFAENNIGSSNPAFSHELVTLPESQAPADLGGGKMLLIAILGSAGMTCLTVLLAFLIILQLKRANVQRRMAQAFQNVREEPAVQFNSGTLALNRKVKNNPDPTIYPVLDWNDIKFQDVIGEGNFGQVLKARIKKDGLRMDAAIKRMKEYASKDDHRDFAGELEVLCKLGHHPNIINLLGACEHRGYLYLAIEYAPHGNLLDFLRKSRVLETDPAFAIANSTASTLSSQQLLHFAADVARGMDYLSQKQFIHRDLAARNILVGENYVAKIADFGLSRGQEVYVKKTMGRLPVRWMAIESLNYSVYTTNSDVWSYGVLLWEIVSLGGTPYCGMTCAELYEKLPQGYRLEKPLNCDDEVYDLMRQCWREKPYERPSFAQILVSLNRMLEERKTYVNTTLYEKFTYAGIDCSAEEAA
Sequence of Tyrosine-protein kinase Lck (P06239 whole entry): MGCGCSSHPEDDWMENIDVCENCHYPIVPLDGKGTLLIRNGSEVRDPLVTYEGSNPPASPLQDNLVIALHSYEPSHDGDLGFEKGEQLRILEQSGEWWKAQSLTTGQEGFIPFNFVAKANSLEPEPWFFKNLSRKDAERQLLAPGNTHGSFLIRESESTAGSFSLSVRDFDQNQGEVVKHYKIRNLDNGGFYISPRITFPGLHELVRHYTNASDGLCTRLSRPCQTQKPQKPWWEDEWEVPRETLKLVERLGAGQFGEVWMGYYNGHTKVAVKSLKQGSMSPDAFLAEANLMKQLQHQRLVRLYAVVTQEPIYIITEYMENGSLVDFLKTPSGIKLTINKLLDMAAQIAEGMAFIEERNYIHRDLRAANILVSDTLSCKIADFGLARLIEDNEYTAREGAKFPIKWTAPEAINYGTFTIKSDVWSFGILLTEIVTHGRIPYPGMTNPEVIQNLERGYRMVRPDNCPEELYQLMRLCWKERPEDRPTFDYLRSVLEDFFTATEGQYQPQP

As for `Cc1ccc(NC(=O)c2cccc(C(F)(F)F)c2)cc1C(=O)Nc1cncnc1`, the pIC50 – broadly, −log10 of the IC50, conventionally taken in molar units – in series [1] is less than 5.08; in [2] it was 6.70; in series [3], less than 4.60; in [4], less than 4.60.
Consider `CN1CCN(c2ccc(Nc3ncc(NC(=O)c4c(Cl)cccc4Cl)cn3)cc2)CC1`, for which the pIC50 was less than 4.60 in series [1]; 5.97 in series [2]; less than 4.60 in series [3]; less than 4.60 in [4]; 8.00 in series [5]; 6.26 in series [6].
As for `Cc1ccc(NC(=O)c2ccc3c(c2)OC(F)(F)O3)cc1C(=O)Nc1cnc(Nc2ccc(N3CCN(C)CC3)cc2)nc1`, the maximum concentration (Cmax) (as a rule, the maximum level reached in the sampled fluid or tissue) in [7] stood at 16 ng/mL. For the same compound, the Tmax (in general, the time from dosing to the highest level) in series [8] worked out at 0.42 h. For the same compound, in series [9], the clearance (usually the rate of elimination divided by the concentration) was 22.8 mL/min/kg. Moreover, the negative logarithm of the IC50 (pIC50) was 6.57 in series [1]; 8.00 in series [2]; less than 4.60 in series [3]; less than 5.08 in [4]; 7.89 in [14]; 8.89 in series [5]. The pIC50 in series [6] is 7.24. Further, the area under the curve AUC(0-inf) (commonly the area under the concentration-time curve extrapolated to infinity) in [10] turned out to be 58 ng·h/mL. In addition, the half-life (as a rule, the time in which the quantity being followed falls by half) in [11] is 2.5 h. Further, the Vd in [12] was 3.76 L/kg. In addition, the bioavailability (commonly dose-corrected exposure relative to a reference, in per cent) in series [13] came to 4%. Further, the results for the fraction unbound in [15] and in [16] were 0.019 and 0.011, respectively.
As to `Cc1ccc(NC(=O)c2cccc(C(F)(F)F)c2)cc1-c1ccc2nc(N)ncc2c1`, the negative logarithm of the IC50 (pIC50) in [1] was 8.22; in series [2], 9.00; in [3] it was 6.81; in series [4], 7.68; in [5] it was 9.40; in [6], 7.37.
With `Cc1ccc(C(=O)Nc2cccc(C(F)(F)F)c2)cc1C(=O)Nc1cnc(N)nc1`, the pIC50 in series [1] is 6.69; in [2] it was 7.06; in [3], less than 4.60; in series [4], less than 5.30; in series [5] it was 7.82.
Take `Cc1ccc(NC(=O)c2cnoc2C)cc1C(=O)Nc1cnc(Nc2ccc(N3CCN(C)CC3)cc2)nc1`: the pIC50 is 5.42 in [1]; 6.75 in [2]; less than 4.60 in series [3]; less than 4.60 in [4]; 7.85 in series [5]; 5.41 in [6].
In the case of `Cc1ccc(C(=O)Nc2cccc(C(F)(F)F)c2)cc1-c1ccc2nc(N)ncc2c1`, in [6], the pIC50 was 8.05.
With `Cc1ccc(NC(=O)c2cccc(C(F)(F)F)c2)c(C)c1C(=O)Nc1cnc(Nc2ccc(N3CCN(C)CC3)cc2)nc1`, the pIC50 was 5.60 in series [1]; 6.99 in series [2]; less than 4.60 in series [3]; less than 4.60 in series [4]; 8.22 in series [5]; 6.08 in series [6].
Take `CC(=O)Nc1ccc(C)c(C(=O)Nc2cnc(Nc3ccc(N4CCN(C)CC4)cc3)nc2)c1`: the pIC50 in [1] is less than 5.30; in [2], 7.20; in series [3], less than 4.60; in series [4] it was less than 4.60; in series [5] it was 7.32.
On to `Cc1ccc(NC(=O)Nc2cccc(C(F)(F)F)c2)cc1-c1ccc2nc(N)ncc2c1`, for which the pIC50 was 6.77 in series [1]; 7.55 in series [2]; 5.52 in series [3]; 7.03 in series [4]; 8.15 in [5]; 6.69 in series [6].
As to `Cc1ccc(NC(=O)Nc2cccc(C(F)(F)F)c2)cc1C(=O)Nc1cnc(Nc2ccc(N3CCN(C)CC3)cc2)nc1`, the pIC50 in series [1] is 7.39; in series [2] it was 8.70; in series [3], less than 4.60; in [4], less than 5.08; in series [5], 9.22; in series [6] it was 7.06.
For the compound `Cc1ccc(NC(=O)c2ccccc2)cc1C(=O)Nc1cnc(Nc2ccc(N3CCN(C)CC3)cc2)nc1`, the pIC50 in [1] is 6.02; in series [2] it was 9.05; in series [3] it was less than 4.60; in series [4] it was less than 4.60; in [5], 8.30; in series [6] it was 6.73.
In series [9], `Cc1ccc(NC(=O)c2ccc(C(C)(C)C)cc2)cc1C(=O)Nc1cnc(Nc2ccc(N3CCN(C)CC3)cc2)nc1` had a clearance of 111 mL/min/kg. Also, the pIC50 is 7.49 in series [1]; 7.66 in series [2]; less than 4.60 in series [3]; less than 5.08 in series [4]; 8.82 in [5]; 8.00 in series [6]. In series [11], the half-life was 2.9 h. Also, the Vd in series [12] worked out at 15.8 L/kg.
Consider `CN1CCN(c2ccc(Nc3ncc(NC(=O)c4cc(NC(=O)c5ccc6c(c5)OC(F)(F)O6)ccc4Cl)cn3)cc2)CC1`, for which the pIC50 was 7.89 in [1]; 8.22 in series [2]; less than 5.30 in series [3]; less than 5.30 in series [4]; 8.74 in series [5]; 7.54 in series [6].
As to `Cc1ccc(NC(=O)c2cccc(C(F)(F)F)c2)cc1C(=O)Nc1cnc(NCCCN2CCOCC2)nc1`, the pIC50 is less than 5.08 in [1]; 8.00 in series [2]; less than 4.60 in [3]; less than 4.60 in series [4]; 7.62 in series [5]; 6.09 in series [6].
With `CCc1ccc(NC(=O)c2ccc3c(c2)OC(F)(F)O3)cc1C(=O)Nc1cnc(Nc2ccc(N3CCN(C)CC3)cc2)nc1`, the pIC50 in series [1] was less than 5.30; in [2], 6.63; in series [3], less than 4.60; in [4], less than 4.60; in series [5], 8.22; in series [6], 6.03.
`Cc1ccc(C(=O)Nc2cccc(C(F)(F)F)c2)cc1C(=O)Nc1cnc(Nc2ccc(N3CCN(C)CC3)cc2)nc1`: the pIC50 in [1] was 8.30; in series [2], 8.00; in series [3], 6.36; in series [4], 6.91; in series [6], 7.82.
Take `Cc1ccc(NC(=O)c2cccc(C(F)(F)F)c2)cc1C(=O)Nc1cnc(NC2CCN(C)CC2)nc1`: the pIC50 in [1] was less than 4.60; in series [2], 8.30; in series [3], less than 4.60; in series [4], less than 4.60; in [5] it was 5.88.
As for `Cc1ccc(NC(=O)c2cccc(C(F)(F)F)c2)cc1C(=O)Nc1cnc(NCCN2CCOCC2)nc1`, the pIC50 in series [1] was less than 5.08; in series [2] it was 8.22; in series [3], less than 4.60; in [4], less than 4.60; in series [6], 6.69.
Consider `Cc1ccc(NC(=O)Nc2cccc(C(F)(F)F)c2)cc1C(=O)Nc1cnc(N)nc1`, for which the pIC50 was 6.23 in [1]; less than 4.60 in [3]; less than 4.60 in series [4]; 7.20 in [5]; 6.80 in [6].
For `COc1cc(OC)cc(C(=O)Nc2ccc(C)c(C(=O)Nc3cnc(Nc4ccc(N5CCN(C)CC5)cc4)nc3)c2)c1`, the Cmax in [7] was 191 ng/mL. In addition, the Tmax in series [8] amounted to 0.33 h. Moreover, in [9], the clearance is 4.83 mL/min/kg. Further, the pIC50 in series [1] was 6.92; in series [2] it was 8.40; in series [3] it was less than 4.60; in series [4], less than 5.08; in [14] it was 7.37; in [5], 8.85. The compound also gave a pIC50 in series [6] of 7.11. The compound also came in with a total exposure AUC(0-inf) in series [10] of 528 ng·h/mL. In [11], this compound gave a half-life of 2.5 h. Besides, the Vd in series [12] was determined as 0.79 L/kg. This compound registered a bioavailability in series [13] of 8%. For the same compound, the figures for the fraction unbound in series [15] and in series [16] were 0.012 and 0.017, respectively.
With `COc1ccccc1C(=O)Nc1ccc(C)c(C(=O)Nc2cnc(Nc3ccc(N4CCN(C)CC4)cc3)nc2)c1`, the pIC50 is 5.95 in series [1]; 8.10 in [2]; less than 4.60 in [3]; less than 4.60 in series [4]; 8.30 in [5]; 6.40 in series [6].
